Measured values published in ChEMBL document CHEMBL1158657, “Improved antitumor activity by modification of nogalamycin” (1979).
pIC50: −log10 of the molar value. The source made the active and inactive calls. The calls are words filed in the database; no cut-off is given here.

Key:
P388 [1] = experiment: Antitumor activity against mouse P388 cells xenografted in mouse assessed as increase in life span at 25 mg/kg/day, ip after 9 days; type: functional; conditions: route intraperitoneal
P388 [2] = experiment: Antitumor activity against mouse P388 cells xenografted in mouse assessed as increase in life span at 50 mg/kg/day, ip after 9 days; type: functional; conditions: route intraperitoneal
B16 [3] = experiment: Antitumor activity against mouse B16 cells xenografted in mouse assessed as increase in life span at 2 to 5 mg/kg/day, ip after 9 days; type: functional; conditions: route intraperitoneal
P388 [4] = experiment: Antitumor activity against mouse P388 cells xenografted in mouse assessed as increase in life span at 5 mg/kg/day, ip after 9 days; type: functional; conditions: route intraperitoneal
L1210 [5] = experiment: Cytotoxicity against mouse L1210 cells; type: functional; conditions: for IC50 / pIC50: Mus musculus; for IC50: L1210, read-out: ID50; for pIC50: L1210, read-out: ID50 (the source's name)
L1210 [6] = experiment: Antitumor activity against mouse L1210 cells xenografted in mouse assessed as increase in life span at 2.5 mg/kg/day, ip after 9 days; type: functional; conditions: route intraperitoneal
L1210 [7] = experiment: Inhibition of DNA synthesis in mouse L1210 cells; type: functional; conditions: read-out: ID50 (the source's name)
L1210 [8] = experiment: Inhibition of RNA synthesis in mouse L1210 cells; type: functional; conditions: read-out: ID50 (the source's name)
P388 [9] = experiment: Antitumor activity against mouse P388 cells xenografted in mouse assessed as increase in life span at 3.1 mg/kg/day, ip after 9 days; type: functional; conditions: route intraperitoneal
P388 [10] = experiment: Antitumor activity against mouse P388 cells xenografted in mouse assessed as increase in life span at 4 mg/kg/day, ip after 9 days; type: functional; conditions: route intraperitoneal
P388 [11] = experiment: Antitumor activity against mouse P388 cells xenografted in mouse assessed as increase in life span at 12.5 mg/kg/day, ip after 9 days; type: functional; conditions: route intraperitoneal
B16 [12] = experiment: Antitumor activity against mouse B16 cells xenografted in mouse assessed as increase in life span at 0.5 to 1 mg/kg/day, ip after 9 days; type: functional; conditions: route intraperitoneal
P388 [13] = experiment: Antitumor activity against mouse P388 cells xenografted in mouse assessed as increase in life span at 1 mg/kg/day, ip after 9 days; type: functional; conditions: route intraperitoneal
L1210 [14] = experiment: Antitumor activity against mouse L1210 cells xenografted in mouse assessed as increase in life span at 1 mg/kg/day, ip after 9 days; type: functional; conditions: route intraperitoneal
L1210 [15] = experiment: Inhibition of protein synthesis in mouse L1210 cells; type: functional, cell-based
L1210 [16] = experiment: Inhibition of RNA synthesis in mouse L1210 cells at 10 nmole/ml; type: functional
B16 [17] = experiment: Antitumor activity against mouse B16 cells xenografted in mouse assessed as increase in life span at 12 mg/kg/day, ip after 9 days; type: functional; conditions: route intraperitoneal
B16 [18] = experiment: Antitumor activity against mouse B16 cells xenografted in mouse assessed as increase in life span at 16 mg/kg/day, ip after 9 days; type: functional; conditions: route intraperitoneal

`CN[C@H]1C[C@](C)(O)[C@H](C(=O)OC)c2cc3c(c(O)c21)C(=O)c1c(O)cc2c(c1C3=O)O[C@@H]1O[C@@]2(C)[C@H](O)[C@@H](N(C)C)[C@@H]1O` gave an Activity (P388 [1]) of 58%.

`COC(=O)[C@@H]1c2cc3c(c(O)c2[C@@H](N(C)C)C[C@]1(C)O)C(=O)c1c(O)cc2c(c1C3=O)O[C@@H]1O[C@@]2(C)[C@H](O)[C@@H](N(C)C)[C@@H]1O` was tested, and the Activity (P388 [2]) was 54%.

With `CO[C@H]1[C@H](O[C@H]2C[C@](C)(O)Cc3cc4c(c(O)c32)C(=O)c2c(O)cc3c(c2C4=O)O[C@@H]2O[C@@]3(C)[C@H](O)[C@@H](N(C)C)[C@@H]2O)O[C@@H](C)[C@H](OC)[C@@]1(C)OC` [DISNOGAMYCIN] the Activity (B16 [3]) was 61%, the Activity (P388 [4]) was 93% and the ID95 (L1210 [5]) was 0.27 µg/mL. It also gave an IC50 (L1210 [5]) of 0.18 µg/mL, an Activity (L1210 [6]) of 27% and a pIC50 (L1210 [7]) of 5.52. For the same compound, the pIC50 (L1210 [8]) was 6.30.

In the case of `CCCO[C@H]1C[C@](C)(O)[C@H](C(=O)OC)c2cc3c(c(O)c21)C(=O)c1c(O)cc2c(c1C3=O)O[C@@H]1O[C@@]2(C)[C@H](O)[C@@H](N(C)C)[C@@H]1O`, the IC50 (L1210 [5]) was 0.16 µg/mL.

`CCCO[C@H]1C[C@](C)(O)Cc2cc3c(c(O)c21)C(=O)c1c(O)cc2c(c1C3=O)O[C@@H]1O[C@@]2(C)[C@H](O)[C@@H](N(C)C)[C@@H]1O` gave an IC50 (L1210 [5]) of 0.33 µg/mL and an Activity (P388 [9]) of 50%.

For `CC(C)O[C@H]1C[C@@](C)(O)Cc2cc3c(c(O)c21)C(=O)c1c(O)cc2c(c1C3=O)O[C@@H]1O[C@@]2(C)[C@H](O)[C@@H](N(C)C)[C@@H]1O`, the Activity (P388 [10]) was 20%.

For `Cc1ccc2c(O)c3c(cc2c1)C(=O)c1c2c(cc(O)c1C3=O)[C@@]1(C)O[C@@H](O2)[C@@H](O)[C@H](N(C)C)[C@H]1O` [NOGARENE], the ID95 (L1210 [5]) was 0.37 µM, the pIC50 (L1210 [5]) was 6.66 and the Activity (P388 [11]) was 17%.

With `COC(=O)[C@@H]1c2cc3c(c(O)c2[C@@H](O[C@@H]2O[C@@H](C)[C@H](OC)[C@@](C)(OC)[C@H]2OC)C[C@]1(C)O)C(=O)c1c(O)cc2c(c1C3=O)O[C@@H]1O[C@@]2(C)[C@H](O)[C@@H](N(C)C)[C@@H]1O` [NOGALAMYCIN] the Activity (B16 [12]) was 71%, the ID95 (L1210 [5]) was 0.18 µg/mL and the IC50 (L1210 [5]) was 0.078 µg/mL. It also gave an Activity (P388 [13]) of 49%, an Activity (L1210 [14]) of 30% and a pIC50 (L1210 [7]) of 5.48. The pIC50 (L1210 [8]) was 6.40, the Activity (L1210 [15]) was “inactive” and the “inhibition (INH)” value (L1210 [16]) was 99.9%.

Work on `CCO[C@H]1C[C@](C)(O)Cc2cc3c(c(O)c21)C(=O)c1c(O)cc2c(c1C3=O)O[C@@H]1O[C@@]2(C)[C@H](O)[C@@H](N(C)C)[C@@H]1O` yielded an Activity (B16 [17]) of 34%, an IC50 (L1210 [5]) of 0.43 µg/mL and a pIC50 (L1210 [7]) of 5.49. It also gave a pIC50 (L1210 [8]) of 6.10.

In the case of `CO[C@H]1C[C@](C)(O)Cc2cc3c(c(O)c21)C(=O)c1c(O)cc2c(c1C3=O)O[C@@H]1O[C@@]2(C)[C@H](O)[C@@H](N(C)C)[C@@H]1O`, the Activity (B16 [18]) was 105%, the IC50 (L1210 [5]) was 0.41 µg/mL and the Activity (P388 [11]) was 76%. The pIC50 (L1210 [7]) was 4.94, the pIC50 (L1210 [8]) was 5.08 and the “inhibition (INH)” value (L1210 [16]) was 91.2%.

Work on `COC(=O)[C@@H]1c2cc3c(c(O)c2CC[C@]1(C)O)C(=O)c1c(O)cc2c(c1C3=O)O[C@@H]1O[C@@]2(C)[C@H](O)[C@@H](N(C)C)[C@@H]1O` yielded an Activity (P388 [2]) of 27%, an ID95 (L1210 [5]) of 1.51 µM and a pIC50 (L1210 [5]) of 6.24.

For `CCCO[C@H]1C[C@@](C)(O)[C@H](C(=O)OC)c2cc3c(c(O)c21)C(=O)c1c(O)cc2c(c1C3=O)O[C@@H]1O[C@@]2(C)[C@H](O)[C@@H](N(C)C)[C@@H]1O`, the IC50 (L1210 [5]) was 0.3 µg/mL.

Compound `CCO[C@H]1C[C@](C)(O)[C@H](C(=O)OC)c2cc3c(c(O)c21)C(=O)c1c(O)cc2c(c1C3=O)O[C@@H]1O[C@@]2(C)[C@H](O)[C@@H](N(C)C)[C@@H]1O` has an IC50 (L1210 [5]) of 0.16 µg/mL.
